Laboratory results as given in paper PMC9834298, “Prolyl-tRNA synthetase as a novel therapeutic target in multiple myeloma” (Blood Cancer Journal, 2023).

Tests used:
[1] = target: T1, human prolyl-tRNA synthetase (ProRS domain of GluProRS) (Homo sapiens, UniProt P07814); assay: TR-FRET ligand displacement with […] ATP; format: binding
T1 construct: gene EPRS1; recombinant human ProRS
T1 sequence (P07814 998-1512): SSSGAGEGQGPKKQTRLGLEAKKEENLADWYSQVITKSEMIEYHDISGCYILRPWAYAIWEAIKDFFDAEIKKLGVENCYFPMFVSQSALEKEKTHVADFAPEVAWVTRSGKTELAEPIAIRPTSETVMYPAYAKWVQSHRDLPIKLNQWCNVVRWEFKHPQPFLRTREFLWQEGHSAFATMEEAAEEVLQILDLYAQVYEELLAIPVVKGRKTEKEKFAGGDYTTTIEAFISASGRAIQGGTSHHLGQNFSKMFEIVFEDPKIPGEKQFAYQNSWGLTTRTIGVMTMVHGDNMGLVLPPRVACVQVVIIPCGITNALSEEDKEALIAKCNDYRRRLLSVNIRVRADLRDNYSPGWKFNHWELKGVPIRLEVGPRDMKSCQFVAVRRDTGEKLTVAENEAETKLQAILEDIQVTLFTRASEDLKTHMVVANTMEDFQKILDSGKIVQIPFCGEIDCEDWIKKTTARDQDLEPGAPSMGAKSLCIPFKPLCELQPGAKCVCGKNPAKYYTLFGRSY

[2] = target: T1, human prolyl-tRNA synthetase (ProRS domain of GluProRS); assay: TR-FRET ligand displacement with […] proline; crystal structure with proline; format: binding

Compound O=C(CC1NCCCC1O)Cn1cnc2cc(Br)c(Cl)cc2c1=O (centres unmarked) [HFG, Halofuginone] has a Kd [1] of 0.19 nM.
Work on O=C(NC1Cc2ccccc2C1)c1nccnc1NC(=O)N1CCCCC1 [NCP26] yielded a Kd [2] of 0.35 nM.
